From patent US7115619B2, “N8, N13 -disubstituted quino[4,3,2-kl]acridinium salts as therapeutic agents” (Cancer Research Technology Limited, priority 2000, dated 2006) come the findings set out here.

Structures can show the parent of a compound that is named as a salt.

Data set [1] concerns the target T1, telomerase (extracts from A2780 human ovarian carcinoma cells) (Homo sapiens, UniProt O14746).
T1 construct: extracts from exponentially growing A2780 human ovarian carcinoma cells
Nature of the data set: Modified telomeric repeat amplification protocol (TRAP) assay, cell-free. The data set is classed as biochemical. As to conditions: A2780 cell extract, agent up to 50 μM, 20 min, read-out: telIC50. As to the method: The ability of compounds to inhibit telomerase in a cell-free assay was assessed with a modified TRAP assay using extracts from exponentially growing A2780 human ovarian carcinoma cells. The TRAP assay was performed in 2 steps: (a) telomerase-mediated extension of the forward primer (TS: 5′-AATCCGTCGAGCAGAGTT, Oswel Ltd., Southampton, UK) contained in a 40 μL reaction mix comprising TRAP buffer (20 mM Tris-HCl (pH 8.3), 68 mM KCl, 1.5 mM MgCl2, 1 mM EGTA, 0.05% v/v Tween 20), 0.05 μg bovine serum albumin, 50 μM of each deoxynucleotide triphosphate, 0.1 μg TS primer, and 3 μCi of [α-^32P]dCTP (Amersham plc, UK). Protein (0.04 μg) was then incubated with the reaction mix±agent (acid addition and quaternary dimethiodide salts) at final concentrations of up to 50 μM for 20 min at […]. A lysis buffer (no protein) control, heat-inactivated protein control, and 50% protein (0.02 μg) control were included in each assay; and (b) while heating at […]. in a PCR block of a thermal cycler (Hybaid, UK) for 5 min to inactivate telomerase activity, 0.1 μg of reverse CX primer (3′-[…]-5′) and 2 Units of Taq DNA polymerase (“red hot”, Advanced Biotechnologies) were added. A 3-step PCR was then performed: 94° C. for 30 s, 50° C. for 30 s, and […]. for 1 min for 31 cycles. Telomerase-extended PCR products in the presence or absence of compounds were then determined either by electrophoretic separation using 8% w/w acrylamide denaturing gels and analysis by phosphorimaging or autoradiography, or by harvesting on Whatman filters (25 mm glass microfibre) and analysis by liquid scintillation counting.

The nature of data set [2]: Growth inhibition, sulforhodamine B (SRB) assay, A2780. The data set is classed as cell-based. As to conditions: human, A2780 ovarian carcinoma cells, 96 hr incubation, read-out: Cytotoxicity IC50 A2780. As to the method: (§1) Growth inhibition was measured in the following cells lines using the sulforhodamine B (SRB) assay: • A2780: human ovarian carcinoma cell line. • CH1: human ovarian carcinoma cell line. • SKOV-3: human ovarian carcinoma cell line. • A431: human vulval carcinoma cells (short telomeres). • GM847: carcinoma cell line immortalised by ALT pathway.
(§2) Briefly, between 3000 and 6000 cells were seeded into the wells of 96-well microtiter plates and allowed to attach overnight. Test compounds (salts) were dissolved at 500 μM in water and immediately added to wells in quadruplicate at final concentrations of 0.05, 0.25, 1, 5 and 25 μM. Following an incubation period of 96 hr, remaining cells were fixed with ice-cold 10% w/v trichloroacetic acid (30 min) and stained with 0.4% SRB in 1% v/v acetic acid (15 min). Mean absorbance at 540 nm for each drug concentration was expressed as a percentage of the control untreated well absorbance, and IC50 values (concentration required to inhibit cell growth by 50%) were determined for each agent.
On the technique in general: The SRB assay estimates cell density from bound dye.

The nature of data set [3]: Growth inhibition, sulforhodamine B (SRB) assay, CH1. Type of data set: cell-based. The following applies: human, CH1 ovarian carcinoma cells, 96 hr incubation, read-out: Cytotoxicity IC50 CH1. As to the method: as §1, §2
Data set [4] is described as follows: Growth inhibition, sulforhodamine B (SRB) assay, SKOV-3. The following applies: human, SKOV-3 ovarian carcinoma cells, 96 hr incubation, read-out: Cytotoxicity IC50 SKOV-3. The data set is classed as cell-based. As to the method: as §1, §2
Data set [5] is described as follows: Growth inhibition, sulforhodamine B (SRB) assay, A431. As to conditions: human, A431 vulval carcinoma cells (short telomeres), 96 hr incubation, read-out: Cytotoxicity IC50 A431. The data set is classed as cell-based. As to the method:
as §2, with “Growth inhibition was measured in the following cells lines using the sulforhodamine B (SRB) assay: • A2780: human ovarian carcinoma cell line. • CH1: human ovarian carcinoma cell line. • SKOV-3: human ovarian carcinoma cell line. • A431: human vulval carcinoma cells (short telomeres). • GM847: carcinoma cell line immortalised by ALT pathway. Briefly,” for “Briefly,”

Data set [6] can be described thus: Growth inhibition, sulforhodamine B (SRB) assay, GM847. The following applies: human, GM847 cells (immortalised by ALT pathway), 96 hr incubation, read-out: Cytotoxicity IC50 GM847. The data set is classed as cell-based. As to the method:
as §2, with “Growth inhibition was measured in the following cells lines using the sulforhodamine B (SRB) assay: • A2780: human ovarian carcinoma cell line. • CH1: human ovarian carcinoma cell line. • SKOV-3: human ovarian carcinoma cell line. • A431: human vulval carcinoma cells (short telomeres). • GM847: carcinoma cell line immortalised by ALT pathway. Briefly,” for “Briefly,”

T1 sequence (O14746 whole entry): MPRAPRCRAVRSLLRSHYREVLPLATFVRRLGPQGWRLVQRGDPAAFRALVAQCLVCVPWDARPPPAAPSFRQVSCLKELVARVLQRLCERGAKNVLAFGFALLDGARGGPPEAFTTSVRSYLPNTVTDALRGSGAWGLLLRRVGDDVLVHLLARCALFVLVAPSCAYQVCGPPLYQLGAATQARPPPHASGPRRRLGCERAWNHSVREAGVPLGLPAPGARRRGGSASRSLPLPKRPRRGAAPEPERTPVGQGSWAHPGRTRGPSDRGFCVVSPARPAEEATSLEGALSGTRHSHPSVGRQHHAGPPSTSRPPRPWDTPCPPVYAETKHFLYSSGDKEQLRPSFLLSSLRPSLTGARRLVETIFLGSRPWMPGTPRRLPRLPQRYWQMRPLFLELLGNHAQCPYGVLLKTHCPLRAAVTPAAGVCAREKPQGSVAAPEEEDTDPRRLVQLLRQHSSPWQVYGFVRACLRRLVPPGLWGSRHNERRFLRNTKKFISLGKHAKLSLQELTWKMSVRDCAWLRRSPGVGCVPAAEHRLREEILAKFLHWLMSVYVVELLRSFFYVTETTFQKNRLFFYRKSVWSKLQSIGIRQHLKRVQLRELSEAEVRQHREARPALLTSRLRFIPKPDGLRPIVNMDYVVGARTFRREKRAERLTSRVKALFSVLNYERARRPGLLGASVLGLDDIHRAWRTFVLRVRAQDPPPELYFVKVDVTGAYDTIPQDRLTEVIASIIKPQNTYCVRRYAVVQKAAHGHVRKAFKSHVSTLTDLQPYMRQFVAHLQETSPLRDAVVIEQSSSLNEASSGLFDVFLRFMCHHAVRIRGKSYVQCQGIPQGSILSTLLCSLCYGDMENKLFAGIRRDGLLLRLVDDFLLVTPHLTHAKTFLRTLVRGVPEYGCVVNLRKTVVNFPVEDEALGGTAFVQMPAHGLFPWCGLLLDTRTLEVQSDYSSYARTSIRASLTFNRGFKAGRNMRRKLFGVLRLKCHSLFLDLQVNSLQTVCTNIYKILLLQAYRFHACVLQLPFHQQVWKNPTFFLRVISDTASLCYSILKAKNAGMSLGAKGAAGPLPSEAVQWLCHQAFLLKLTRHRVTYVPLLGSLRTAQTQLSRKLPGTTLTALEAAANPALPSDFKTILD

For orientation: melting point means the temperature of the solid-liquid transition. `CN1c2ccccc2-c2c3c1cccc3c1cc(Cl)ccc1[n+]2C` (as salt: iodide) [RHPS06, 3-Chloro-8,13-dimethyl-8H-quino[4,3,2-kl]acridinium iodide] came in with a melting point of 225 to 227 °C.

For the molecule `COC(=O)/C=C/c1ccc2c(c1)c1cccc3c1c([n+]2C)-c1ccccc1N3C` (as salt: iodide) [RHPS15, (E)-3-(8,13-Dimethyl-8H-quino[4,3,2-kl]acridinium-3-yl)-acrylic acid methyl ester iodide], the melting point was in the range of 200 to 202 °C.

`Cc1cc2c3c([n+](C)c4ccc(Cl)cc4c3c1)-c1cc(Cl)ccc1N2C` (as salt: sulfate) [RHPS02, 3,11-Dichloro-6,8,13-trimethyl-8H-quino[4,3,2-kl]acridinium methylsulfate] displayed a melting point of 250 to 252 °C.

Molecule `Cc1cc2c3c([n+](C)c4ccccc4c3c1)-c1ccccc1N2C` (as salt: sulphate) [RHPS01, 6,8,13-Trimethyl-8H-quino[4,3,2-kl]acridinium methyl sulphate] had a melting point of 190 to 192 °C.

In the case of `Cc1ccc2c(c1)-c1c3c(cc(C)cc3c3cc(C)ccc3[n+]1C)N2C` (as salt: sulphate) [RHPS03, 3,6,8,11,13-Pentamethyl-8H-quino[4,3,2-kl]acridinium methyl sulphate], the melting point was 240 to 242 °C.

Take `Cc1cc2c3c([n+](C)c4ccccc4c3c1)-c1ccccc1N2C` [RHPS01, 6,8,13-Trimethyl-8H-quino[4,3,2-kl]acridinium methyl sulphate]: the IC50 in data set [1] is 740 nM. Further, the IC50 at 96 h in data set [2] was 900 nM; in data set [3], 370 nM; in data set [4], 3600 nM.

For `Cc1cc2c3c([n+](C)c4ccc(Cl)cc4c3c1)-c1cc(Cl)ccc1N2C` [RHPS02, 3,11-Dichloro-6,8,13-trimethyl-8H-quino[4,3,2-kl]acridinium methylsulfate], the IC50 in data set [1] worked out at 240 nM. The IC50 at 96 h was found to be 1300 nM in data set [2], 1400 nM in data set [3] and 9300 nM in data set [4].

Consider `Cc1ccc2c(c1)-c1c3c(cc(C)cc3c3cc(C)ccc3[n+]1C)N2C` [RHPS03, 3,6,8,11,13-Pentamethyl-8H-quino[4,3,2-kl]acridinium methyl sulphate], for which the IC50 in data set [1] was found to be 180 nM. Further, the IC50 at 96 h is 330 nM in data set [2], 290 nM in data set [3] and 750 nM in data set [4].

In the case of `Cc1cc2c3c([n+](C)c4ccc(F)cc4c3c1)-c1cc(F)ccc1N2C` [RHPS04, 3,11-Difluoro-6,8,13-trimethyl-8H-quino[4,3,2-kl]acridinium methyl sulphate], in data set [1], the IC50 worked out at 310 nM. Moreover, the values for the IC50 at 96 h in data set [2], in data set [3] and in data set [4] were 1100 nM, 500 nM and 23000 nM, respectively.

Regarding `CN1c2ccccc2-c2c3c1cccc3c1ccccc1[n+]2C` [RHPS05, 8,13-Dimethyl-8H-quino[4,3,2-kl]acridinium iodide], the IC50 in data set [1] was 1550 nM. The IC50 at 96 h in data set [2] is 1600 nM; in data set [3], 1100 nM; in data set [4] it was 18000 nM.

On to `CN1c2ccccc2-c2c3c1cccc3c1cc(Cl)ccc1[n+]2C` [RHPS06, 3-Chloro-8,13-dimethyl-8H-quino[4,3,2-kl]acridinium iodide], for which the IC50 in data set [1] is 260 nM. Also, the IC50 at 96 h is 1100 nM in data set [2], 500 nM in data set [3] and 12500 nM in data set [4].

With `CN1c2cc(Cl)ccc2-c2c3c1cccc3c1cc(Cl)ccc1[n+]2C` [RHPS07, 3,10-Dichloro-8,13-dimethyl-8H-quino[4,3,2-kl]acridinium iodide], in data set [1], the IC50 is 940 nM. Moreover, the IC50 at 96 h is 14500 nM in data set [2], 3800 nM in data set [3] and above 25000 nM in data set [4].

Take `COc1cc2c3c([n+](C)c4ccccc4c3c1)-c1ccccc1N2C` [RHPS08, 8,13-Dimethyl-6-methoxy-8H-quino[4,3,2-kl]acridinium iodide]: in data set [1], the IC50 worked out at 470 nM. Also, the IC50 at 96 h in data set [2] amounted to 620 nM; in data set [3], 130 nM; in data set [4], 3600 nM.

`COC(=O)CCc1ccc2c(c1)c1cccc3c1c([n+]2C)-c1ccccc1N3C` [RHPS09, 3-(8,13-Dimethyl-8H-quino[4,3,2-kl]acridinium-3-yl)-propionic acid methyl ester iodide]: the IC50 in data set [1] stood at 3020 nM. For the same molecule, the IC50 at 96 h was above 25000 nM in data set [2], 11500 nM in data set [3] and above 25000 nM in data set [4].

Take `COc1cc2c3c([n+](C)c4ccc(Cl)cc4c3c1)-c1ccccc1N2C` [RHPS10, 3-Chloro-8,13-dimethyl-6-methoxy-8H-quino[4,3,2-kl]acridinium iodide]: the IC50 in data set [1] was found to be 240 nM. The IC50 at 96 h was determined as 1100 nM in data set [3], 6300 nM in data set [4], 3200 nM in data set [5] and 800 nM in data set [6].

For the molecule `CC(=O)Oc1cc2c3c([n+](C)c4ccccc4c3c1)-c1ccccc1N2C` [RHPS11, 6-Acetoxy-8,13-dimethyl-8H-quino[4,3,2-kl]acridinium iodide], the IC50 in data set [1] amounted to 1700 nM. Also, the IC50 at 96 h in data set [3] amounted to 1600 nM; in data set [4], 3500 nM; in data set [5], 1700 nM; in data set [6], 17700 nM.

Turning to `COc1cc2c3c([n+](C)c4ccccc4c3c1)-c1ccc(Cl)cc1N2C` [RHPS12, 10-Chloro-8,13-dimethyl-6-methoxy-8H-quino[4,3,2-kl]acridinium iodide], the IC50 in data set [1] amounted to 280 nM. Besides, the IC50 at 96 h is 300 nM in data set [3], 10000 nM in data set [4], 1000 nM in data set [5] and 400 nM in data set [6].

In the case of `COC(=O)Oc1cc2c3c([n+](C)c4ccccc4c3c1)-c1ccccc1N2C` [RHPS13, 6-Methoxycarbonyloxy-8,13-dimethyl-8H-quino[4,3,2-kl]acridinium iodide], the IC50 in data set [1] is 570 nM. Besides, the IC50 at 96 h is 200 nM in data set [3], 1500 nM in data set [4], 400 nM in data set [5] and 500 nM in data set [6].

Take `COC(=O)/C=C/c1ccc2c(c1)c1cccc3c1c([n+]2C)-c1ccccc1N3C` [RHPS15, (E)-3-(8,13-Dimethyl-8H-quino[4,3,2-kl]acridinium-3-yl)-acrylic acid methyl ester iodide]: the IC50 in data set [1] turned out to be 190 nM. The IC50 at 96 h in data set [3] is 2200 nM; in data set [4], 19000 nM; in data set [5] it was 3200 nM; in data set [6], 4500 nM.

With `CN1c2ccccc2-c2c3c1cccc3c1cc(/C=C/C(=O)N3CCOCC3)ccc1[n+]2C` [RHPS16, 8,13-Dimethyl-(E)-3-(3-morpholin-4-yl-3-oxo-propenyl)-8H-quino[4,3,2-kl]acridinium iodide], in data set [1], the IC50 turned out to be 370 nM. Further, the IC50 at 96 h in data set [3] is 17800 nM; in data set [4] it was above 25000 nM; in data set [5] it was 12500 nM; in data set [6], above 25000 nM.
